Results published in US5512553A, “7-(substituted)-8-(substituted)-9-(substituted amino)-6-demethyl-6-deoxytetracyclines” (American Cyanamid Company, priority 1995, dated 1996).
Where a name gives a salt, the structure may show the parent alone. Read-outs that look alike come from different tables or passages of the source.

Legend:
E. coli UBMS 89-1 (tetM) = assay: microbe, parasite or virus in culture; type: cell-based; details: Escherichia coli, 18 h
Experimental: (§1) Method for In Vitro Antibacterial Evaluation (Table I)
(§2) The minimum inhibitory concentration (MIC), the lowest concentration of the antibiotic which inhibits growth of the test organism, is determined by the agar dilution method using Muller-Hinton II agar (Baltimore Biological Laboratories). An inoculum density of 1-5×10^5 CFU/ml and an antibiotic concentration (32-≤0.015 μg/ml) is used. The plates are incubated for 18 hours at 35° C. in a forced air incubator. The test organisms comprise strains sensitive to tetracycline and genetically defined strains that are resistant to tetracycline, due to inability to bind bacterial ribosomes (tetM).

[1] = system: S. aureus UBMS 88-5 (tetM); assay: microbe, parasite or virus in culture; type: cell-based; details: Staphylococcus aureus, 18 h
Experimental: as §1, §2

[2] = system: S. aureus UBMS 90-2 (tetM); assay: microbe, parasite or virus in culture; type: cell-based; details: Staphylococcus aureus, 18 h
Experimental: as §1, §2

[3] = system: S. aureus UBMS 90-1 (tetM); assay: microbe, parasite or virus in culture; type: cell-based; details: Staphylococcus aureus, 18 h
Experimental: as §1, §2

[4] = system: S. aureus UBMS 88-7 (tetK); assay: microbe, parasite or virus in culture; type: cell-based; details: Staphylococcus aureus, 18 h
Experimental: as §1, §2

E. coli UBMS 88-1 (tetB) = assay: microbe, parasite or virus in culture; type: cell-based; details: Escherichia coli, 18 h
Experimental: as §1, §2

[5] = system: E. coli UBMS 89-2 (sensitive); assay: In vitro antibacterial evaluation, MIC by agar dilution; type: cell-based; details: Escherichia coli, Muller-Hinton II agar, 18 hours at 35° C.
Experimental: as §1, §2

[6] = system: S. aureus IVES 1983 (MP) (meth. resistant); assay: as above; type: cell-based; details: Staphylococcus aureus
Experimental: as §1, §2

[7] = system: S. aureus ATCC 29213 (sensitive); assay: as above; type: cell-based; details: Staphylococcus aureus
Experimental: as §1, §2

[8] = system: E. coli UBMS 88-2 (sensitive); assay: as above; type: cell-based; details: Escherichia coli
Experimental: as §1, §2

S. haemol. AVAH 88-3 = assay: as above; type: cell-based
Experimental: as §1, §2

S. faecal. ATCC 29212 = assay: as above; type: cell-based
Experimental: as §1, §2

[9] = system: S. aureus SMITH (MP) (sensitive); assay: as above; type: cell-based; details: Staphylococcus aureus
Experimental: as §1, §2

[10] = system: S. aureus UBMS 90-3 (sensitive); assay: as above; type: cell-based; details: Staphylococcus aureus
Experimental: as §1, §2

Enteroc. spp. 12201 = assay: as above; type: cell-based
Experimental: as §1, §2

E. coli ATCC 25922 = assay: as above; type: cell-based; details: Escherichia coli
Experimental: as §1, §2

[11] = system: S. aureus UBMS 88-4 (sensitive); assay: as above; type: cell-based; details: Staphylococcus aureus, 18 h
Experimental: as §1, §2

[12] = system: Staphylococcus aureus strain Smith (tetracycline sensitive); assay: In vivo antibacterial evaluation, acute lethal infection in mice; details: 168 h, female mice CD-1, intraperitoneal challenge with S. aureus Smith, dosed subcutaneously or orally 30 minutes after infection, 7 day survival ratios
Experimental: In Vivo Antibacterial Evaluation (Table III)
The therapeutic effects of tetracyclines are determined against an acute lethal infection with Staphylococcus aureus strain Smith (tetracycline sensitive). Female, mice, strain CD-1 (Charles River Laboratories), 20±2 grams, are challenged by an intraperitoneal injection of sufficient bacteria (suspended in hog mucin) to kill non-treated controls within 24-48 hours. Antibacterial agents, contained in 0.5 ml of 0.2% aqueous agar, are administered subcutaneously or orally 30 minutes after infection. When an oral dosing schedule is used, animals are deprived of food for 5 hours before and 2 hours after infection. Five mice are treated at each dose level. The 7 day survival ratios from 3 separate tests are pooled for calculation of median effective dose (ED50).

[13] = system: S. aureus IVES 2943 (meth. resistant); assay: In vitro antibacterial evaluation, MIC by agar dilution; type: cell-based; details: Staphylococcus aureus, 18 h
Experimental: as §1, §2

[14] = system: S30 extract from derivative of E. coli MRE 600 containing the tetM determinant; assay: E. coli in vitro cell free protein translation system, TetM S30; type: biochemical; details: for % Inhibition TetM S30: 35S-methionine incorporation, 30 minutes at 37° C.
Excerpt: (§3) E. coli in Vitro protein Translation System (Table II)
(§4) An in vitro, cell free, protein translation system using extracts from E. coli strain MRE 600 (tetracycline sensitive) and a derivative of MRE 600 containing the tetM determinant has been developed based on literature methods J. M. Pratt, Coupled Transcription-translation in Prokaryotic Cell-free Systems, Transcription and Translation, a Practical Approach, (B. D. Hames and S. J. Higgins, eds) p. 179-209, IRL Press, Oxford-Washington, 1984!.
(§5) Using the system described above, the tetracycline compounds of the present invention are tested for their ability to inhibit protein synthesis in vitro. Briefly, each 10 μl reaction contains S30 extract (a whole extract) made from either tetracycline sensitive cells or an isogenic tetracycline resistant (tetM) strain, low molecular weight components necessary for transcription and translation (i.e., ATP and GTP), a mix of 19 amino acids (no methionine), ^35 S labeled methionine, DNA template (either pBR322 or pUC119), and either DMSO (control) or the novel tetracycline compound to be tested ("novel TC") dissolved in DMSO.
(§6) The reactions are incubated for 30 minutes at 37° C. Timing is initiated with the addition of the S30 extract, the last component to be added. After 30 minutes, 2.5 μl of the reaction is removed and mixed with 0.5 ml of 1N NaOH to destroy RNA and tRNA. Two to three ml of 25% trichloroacetic acid is added and the mixture incubated at room temperature for 15 minutes. The trichloroacetic acid precipitated material is collected on Whatman GF/C filters and washed with a solution of 10% trichloroacetic acid. The filters are dried and the retained radioactivity, representing incorporation of ^35 S-methionine into polypeptides, is counted using standard liquid scintillation methods.
(§7) The percent inhibition (P.I.) of protein synthesis is determined to be: [formula]

[15] = system: S30 extract from E. coli strain MRE 600 (tetracycline sensitive); assay: E. coli in vitro cell free protein translation system, Wild Type S30; type: biochemical; details: for % Inhibition Wild Type S30: 35S-methionine incorporation, 30 minutes at 37° C.
Excerpt: as §3, §4, §5, §6, §7

[16] = ATCC29213, agar dilution, Muller-Hinton II agar, 18 hours at 35° C., S. aureus ATCC 29213 (sensitive), read-out: MIC
[17] = agar dilution, Muller-Hinton II agar, 18 hours at 35° C., S. faecal. ATCC 29212, read-out: MIC
[18] = agar dilution, Muller-Hinton II agar, 18 hours at 35° C., S. aureus SMITH (MP) (sensitive), read-out: MIC
[19] = agar dilution, Muller-Hinton II agar, 18 hours at 35° C., S. aureus UBMS 90-3 (sensitive), read-out: MIC

SMILES | MIC (E. coli UBMS 89-1 (tetM)) | MIC [1] | MIC [2] | MIC [3] | MIC [4] | MIC (E. coli UBMS 88-1 (tetB)) | MIC [5] | MIC [7, 16] | MIC ([8]; 18 h) | MIC [11] | ED50 [12] | MIC ([6]; 18 h) | MIC (S. haemol. AVAH 88-3; 18 h) | MIC (S. faecal. ATCC 29212; 18 h) | MIC ([9]; 18 h) | MIC [13] | MIC ([10]; 18 h) | MIC (Enteroc. spp. 12201; 18 h) | MIC (E. coli ATCC 25922; ATCC25922, 18 h) | other results
CN(C)[C@@H]1C(O)=C(C(N)=O)C(=O)[C@@]2(O)C(O)=C3C(=O)c4c(cc(Cl)c(NN)c4O)CC3CC12 (stereo partly drawn) [J, 4S-(4alpha, 12aalpha)!-8-Chloro-4-(dimethylamino)-9-hydrazino-1,4,4a,5,5a,6-11,12a-octahydro-3,10,12,12a-tetrahydroxy-1,11-dioxo-2-naphthacenecarboxamide monohydrochloride] | 16 µg/mL | 0.5 µg/mL | 0.5 µg/mL | 0.5 µg/mL | 1 µg/mL | 32 µg/mL | 4 µg/mL | ≤ 0.015 µg/mL | 2 µg/mL | 0.06 µg/mL | > 16 mg/kg | – | – | – | – | – | – | – | – | MIC ([6]; agar dilution, Muller-Hinton II agar, 18 hours at 35° C., S. aureus IVES 1983 (MP) (meth. resistant), read-out: MIC): 2 µg/mL; MIC (S. haemol. AVAH 88-3; agar dilution, Muller-Hinton II agar, 18 hours at 35° C., S. haemol. AVAH 88-3, read-out: MIC): 0.25 µg/mL; MIC (S. faecal. ATCC 29212; [17]): 0.5 µg/mL; MIC [9, 18]: 0.03 µg/mL; MIC [10, 19]: 0.03 µg/mL; MIC (Enteroc. spp. 12201; agar dilution, Muller-Hinton II agar, 18 hours at 35° C., Enteroc. spp. 12201, read-out: MIC): 0.05 µg/mL; MIC (E. coli ATCC 25922; ATCC25922, agar dilution, Muller-Hinton II agar, 18 hours at 35° C., E. coli ATCC 25922, read-out: MIC): 1 µg/mL
CN(C)c1c(Cl)c(NC=O)c(O)c2c1CC1CC3C(N(C)C)C(O)=C(C(N)=O)C(=O)C3(O)C(O)=C1C2=O.O=S(=O)(O)O (centres unmarked) [F, 8-Chloro-4,7-bis(dimethylamino)-9-(formylamino)-1,4,4a,5,5a,6,11,12a-octahydro-3,10,12,12a-tetrahydroxy-1,11-dioxo-2-naphthacenecarboxamide sulfate] | 0.5 µg/mL | 0.25 µg/mL | 0.12 µg/mL | 0.5 µg/mL | 4 µg/mL | > 32 µg/mL | 1 µg/mL | – | 1 µg/mL | 0.12 µg/mL | – | 8 µg/mL | 0.12 µg/mL | 0.06 µg/mL | 0.06 µg/mL | 8 µg/mL | 0.06 µg/mL | 0.5 µg/mL | 0.25 µg/mL | MIC ([7]; ATCC29213, 18 h): 0.06 µg/mL
CN(C)c1c(Cl)c(N)c(O)c2c1CC1CC3[C@H](N(C)C)C(O)=C(C(N)=O)C(=O)[C@@]3(O)C(O)=C1C2=O (some centres unmarked) [H, 9-Amino-8-chloro-4,7-(dimethylamino)-1,4-4a,5,5a,6,11,12a-octahydro-3,10,12,12a-tetrahydroxy-1,11-dioxo-2-naphthacenecarboxamide sulfate] | – | 1 µg/mL | 0.5 µg/mL | 2 µg/mL | 0.25 µg/mL | > 32 µg/mL | 16 µg/mL | < 0.015 µg/mL | – | 0.12 µg/mL | 4 to 8 mg/kg | 4 µg/mL | 0.12 µg/mL | – | 0.06 µg/mL | 1 µg/mL | 0.12 µg/mL | 4 µg/mL | 4 µg/mL | % Inhibition TetM S30 ([14]; Conc. 0.1 mg/ml): 19%; % Inhibition TetM S30 ([14]; Conc. 0.3 mg/ml): 21%; % Inhibition TetM S30 ([14]; Conc. 1.0 mg/ml): 29%; % Inhibition Wild Type S30 ([15]; Conc. 0.1 mg/ml): 52%; % Inhibition Wild Type S30 ([15]; Conc. 0.3 mg/ml): 62%; % Inhibition Wild Type S30 ([15]; Conc. 1.0 mg/ml): 57%; MIC ([8]; agar dilution, Muller-Hinton II agar, 18 hours at 35° C., E. coli UBMS 88-2 (sensitive), read-out: MIC): 8 µg/mL; MIC (S. faecal. ATCC 29212; [17]): 0.5 µg/mL
CN(C)[C@@H]1C(=O)C(C(N)=O)=C(O)[C@@]2(O)C(=O)C3=C(O)c4c(O)cccc4[C@@](C)(O)[C@H]3C[C@@H]12 [K, Tetracycline hydrochloride, reference compound] | 16 µg/mL | > 32 µg/mL | 32 µg/mL | > 32 µg/mL | > 32 µg/mL | > 32 µg/mL | 1 µg/mL | – | 0.25 µg/mL | 0.12 µg/mL | – | > 32 µg/mL | 1 µg/mL | 16 µg/mL | 0.06 µg/mL | > 32 µg/mL | 0.06 µg/mL | 32 µg/mL | 0.5 µg/mL | inhibition of protein synthesis, in words ([14]; cell-free extracts from strain MRE600 (tetM)): resistant; inhibition of protein synthesis, in words ([15]; cell-free extracts from tetracycline susceptible strain MRE600): inhibited; MIC ([7]; ATCC29213, 18 h): ≤ 0.015 µg/mL
CCN(CC)c1c(Cl)c(N)c(O)c2c1CC1CC3[C@H](N(C)C)C(O)=C(C(N)=O)C(=O)[C@@]3(O)C(O)=C1C2=O (some centres unmarked) [M] | – | – | – | – | – | – | – | – | – | – | > 16 mg/kg | – | – | – | – | – | – | – | – | –
CN(C)[C@@H]1C(O)=C(C(N)=O)C(=O)[C@@]2(O)C(O)=C3C(=O)c4c(cc(Cl)c(NC=O)c4O)CC3CC12 (some centres unmarked) [A HCL] | – | – | – | – | – | – | – | – | – | – | 4 to 8 mg/kg | – | – | – | – | – | – | – | – | –
CN(C)c1c(Cl)cc(O)c2c1CC1CC3[C@H](N(C)C)C(O)=C(C(N)=O)C(=O)[C@@]3(O)C(O)=C1C2=O (some centres unmarked) [B, 8-Chloro-4,7-bis(dimethylamino)-1,4,4a,5-5a,6,11,12a-octahydro-3,10,12,12a-tetrahydroxy-1,11-dioxo-2-naphthacenecarboxamide sulfate] | > 32 µg/mL | 0.5 µg/mL | 0.5 µg/mL | 0.05 µg/mL | 0.5 µg/mL | > 32 µg/mL | 16 µg/mL | ≤ 0.015 µg/mL | 8 µg/mL | 0.03 µg/mL | > 16 mg/kg | 1 µg/mL | 0.25 µg/mL | 1 µg/mL | – | 1 µg/mL | – | 1 µg/mL | 8 µg/mL | MIC [9, 18]: 0.06 µg/mL; MIC [10, 19]: 0.06 µg/mL
